Tests used:
[1] = system: LNCaP xenograft tumor-bearing mice; assay: Biodistribution studies of 177Lu-labeled ligands in LNCaP xenograft mice; type: in vivo, mouse
Protocol: (§1) Inoculation of mice with xenografts: All animal studies were approved by the Institutional Animal Care and Use Committee of Weill Cornell Medicine and were undertaken in accordance with the guidelines set forth by the USPHS Policy on Humane Care and Use of Laboratory Animals. Animals were housed under standard conditions in approved facilities with 12 h light/dark cycles. Food and water was provided ad libitum throughout the course of the studies. Hairless male nu/nu mice were purchased from the Jackson Laboratory. For inoculation in mice, LNCaP cells were suspended at 4×10^7 cells/mL in a 1:1 mixture of PBS:Matrigel (BD Biosciences). Each mouse was injected in the left flank with 0.25 mL of the cell suspension. The mice were imaged when the tumors reached approximately 200-400 mm^3, while biodistributions were conducted when tumors were in the range 100-400 mm^3.
Biodistribution studies of 177Lu-labeled ligands in LNCaP xenograft mice: LNCaP xenograft tumor-bearing mice (5 per time point per compound) were injected intravenously with a bolus injection of 348-851 kBq (9.4-23 μCi) and 37-50 ng ([…]) of each ligand. The mice were sacrificed at 4, 24 and 96 h post injection. A blood sample was removed, and a full biodistribution study was conducted on the following organs (with contents): heart, lungs, liver, small intestine, large intestine, stomach, spleen, pancreas, kidneys, muscle, bone and tumor. Tissues were weighed and counted on a 2470 Wizard^2 Automatic Gamma Counter (Perkin Elmer). Counts were corrected for decay and for activity injected, and tissue uptake was expressed as percent injected dose per gram (% ID/g). Standard error measurement was calculated for each data point.

[2] = system: LNCaP xenograft tumor-bearing mice; assay: Dosimetry (dose integrals from time-activity curves of 177Lu-labeled ligands); type: in vivo, mouse; settings: over 96 h
Protocol: Dosimetry: The dosimetry was calculated assuming a linear interpolation between the three time points. The average injected dose per organ was calculated by using the average of the activity and organ weights of the mice at that time point. Intermediate time points at every 4 hours were generated using the linear approximation and all time points were corrected for decay during the time interval between points. These curves were integrated using a trapezoidal approximation and the sum used to determine the residence time.

LNCaP xenograft tumors = assay: Therapy study in LNCaP xenograft mice; type: in vivo, mouse; settings: for tumors not detectable (<0.5 mm^3): 75 d post injection
Protocol: as §1, with “xenografts.” for “xenografts:”, “Male BALB/c athymic” for “Hairless male”, “Biodistributions” for “The mice were imaged when the tumors reached approximately 200-400 mm^3, while biodistributions”, “200-800 mm^3, while therapy studies were initiated when tumors were in the range 50-900” for “100-400”
Therapy study in LNCaP xenograft mice. LNCaP xenograft tumor-bearing mice were randomly assigned to 5 groups (7 mice per group). […] The fourth group was injected with the same volume of vehicle. The fifth group was injected with 133 kBq ^225Ac-DOTA-Lys-IPBA. Tumor dimensions were measured and recorded three times weekly with digital calipers, and tumor volumes were calculated using the modified ellipsoid equation, V=0.5*length*width*width. […] Body weight was measured with a digital balance twice weekly, and mice were monitored for signs of distress. The mice were photographed weekly to visually confirm changes in tumor volume.

[3] = Biodistribution / in vivo stability of [225Ac(macropa)]+ compared with 225Ac(NO3)3 and [225Ac(DOTA)]- in C57BL/6 mice; settings: for blood clearance and excretion / accumulation of 225Ac in organs: tail vein, 15 min, 1 h, 5 h
Protocol: C57BL/6 mice were injected via tail vein with 10-50 kBq of each radiometal complex and were sacrificed after 15 min, 1 h, or 5 h.

PSMA on LNCaP cells = molecular target: T1, PSMA on LNCaP cells (Homo sapiens, UniProt Q04609); settings: cited from earlier work
T1 construct: host or cells: LNCaP
T1 sequence (Q04609 whole entry): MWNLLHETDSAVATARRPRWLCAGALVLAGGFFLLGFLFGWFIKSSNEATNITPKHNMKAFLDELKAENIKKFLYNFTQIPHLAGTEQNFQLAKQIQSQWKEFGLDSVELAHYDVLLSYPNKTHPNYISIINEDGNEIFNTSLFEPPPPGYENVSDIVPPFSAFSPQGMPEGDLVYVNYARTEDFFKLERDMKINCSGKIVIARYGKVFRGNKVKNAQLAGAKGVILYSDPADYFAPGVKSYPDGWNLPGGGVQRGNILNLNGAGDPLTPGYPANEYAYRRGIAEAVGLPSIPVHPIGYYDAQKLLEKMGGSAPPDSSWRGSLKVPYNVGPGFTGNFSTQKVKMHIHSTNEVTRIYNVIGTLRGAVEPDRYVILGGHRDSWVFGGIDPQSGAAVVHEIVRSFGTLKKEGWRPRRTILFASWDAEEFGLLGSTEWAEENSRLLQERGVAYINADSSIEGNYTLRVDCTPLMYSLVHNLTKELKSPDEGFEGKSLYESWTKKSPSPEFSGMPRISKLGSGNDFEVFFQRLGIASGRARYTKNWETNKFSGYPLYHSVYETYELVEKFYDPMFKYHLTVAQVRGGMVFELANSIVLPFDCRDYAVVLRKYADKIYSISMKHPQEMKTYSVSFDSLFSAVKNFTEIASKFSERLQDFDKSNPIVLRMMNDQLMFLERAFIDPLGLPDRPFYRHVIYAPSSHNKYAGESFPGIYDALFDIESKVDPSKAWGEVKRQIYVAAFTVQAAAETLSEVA

O=C([O-])CN1CCN(CC(=O)[O-])CCN(CC(=O)O)C(Cc2ccc(NC(=S)NCCCC[C@H](NC(=O)CCOCCOCCOCCOCCOCCOCCn3cc(-c4cccc(NC(=O)NCCCC[C@H](NC(=O)N[C@@H](CCC(=O)O)C(=O)O)C(=O)O)c4)nn3)C(=O)N[C@@H](CCCCNC(=O)Cc3ccc(I)cc3)C(=O)O)cc2)CN(CC(=O)[O-])CC1.[177Lu+3] (stereo partly drawn) [177Lu-RPS-069]
blood activity (comparison within the series) ([1]; 4 h p.i.): lower blood retention | tumor uptake ([1]; 4 h p.i.): 17.0±2.1 % ID/g | tumor uptake ([1]; 96 h p.i.): 9.8±0.8 % ID/g | dose integral in the tumor relative to 177Lu-PSMA-617 [2]: at least two times higher

O=C([O-])CN1CCN(CC(=O)[O-])CCN(CC(=O)O)C(Cc2ccc(NC(=S)N[C@@H](CCCCNC(=O)CCCc3ccc(I)cc3)C(=O)O)cc2)CN(CC(=O)[O-])CC1.[225Ac+3] (stereo partly drawn) [225Ac-DOTA-Lys-IPBA]
mice surviving the first 21 d (LNCaP xenograft tumors; 133 kBq positive control group): 100%

O=C([O-])CN1CCN(CC(=O)[O-])CCN(CC(=O)O)C(Cc2ccc(NC(=S)NCCCC[C@H](NC(=O)CCOCCOCCOCCOCCn3cc(-c4cccc(NC(=O)NCCCC[C@H](NC(=O)N[C@@H](CCC(=O)O)C(=O)O)C(=O)O)c4)nn3)C(=O)N[C@@H](CCCCNC(=O)Cc3ccc(I)cc3)C(=O)O)cc2)CN(CC(=O)[O-])CC1.[177Lu+3] (stereo partly drawn) [177Lu-RPS-061]
blood activity (comparison within the series) ([1]; 4 h p.i.): highest blood activity | tumor-to-kidney ratio ([1]; 96 h p.i.): 3.64±0.29 | dose integral in the tumor relative to 177Lu-PSMA-617 [2]: at least two times higher

O=C([O-])CN1CCN(CC(=O)[O-])CCN(CC(=O)O)C(Cc2ccc(NC(=S)NCCCC[C@H](NC(=O)CCOCCOCCOCCOCCOCCOCCOCCOCCn3cc(-c4cccc(NC(=O)NCCCC[C@H](NC(=O)N[C@@H](CCC(=O)O)C(=O)O)C(=O)O)c4)nn3)C(=O)N[C@@H](CCCCNC(=O)Cc3ccc(I)cc3)C(=O)O)cc2)CN(CC(=O)[O-])CC1.[177Lu+3] (stereo partly drawn) [177Lu-RPS-066]
blood activity (comparison within the series) ([1]; 4 h p.i.): lower blood retention | tumor uptake ([1]; 4 h p.i.): 18.7±1.1 % ID/g | kidney uptake ([1]; 24 h p.i.): 6.2±0.8 % ID/g | tumor-to-kidney ratio ([1]; 24 h p.i.): 1.92±0.30 | tumor uptake ([1]; 96 h p.i.): 5.9±0.7 % ID/g | dose integral in the tumor relative to 177Lu-PSMA-617 [2]: at least two times higher

O=C(O)CC[C@H](NC(=O)N[C@@H](CCCCNC(=O)Nc1cccc(-c2cn(CCOCCOCCOCCC(=O)N[C@@H](CCCCNC(=S)Nc3cc(CN4CCOCCOCCN(Cc5cccc(C(=O)[O-])n5)CCOCCOCC4)nc(C(=O)[O-])c3)C(=O)NCCOCCOCCOCCOCCOCCOCCOCCOCCC(=O)N[C@@H](CCCCNC(=O)CCCc3ccc(I)cc3)C(=O)O)nn2)c1)C(=O)O)C(=O)O.[225Ac+3] [225Ac-RPS-074]
mice surviving the first 21 d (LNCaP xenograft tumors; 37 kBq group): 100% | tumor growth rate (LNCaP xenograft tumors; 37 kBq treatment group): appeared to grow at a similar rate to the untreated tumors | tumors not detectable (<0.5 mm^3) (LNCaP xenograft tumors; 74 kBq group, 1/7): 14% | tumor volumes that began to increase again (LNCaP xenograft tumors; 74 kBq group, after 42 d, 6/7): 86% | time over which tumor volume decreased (LNCaP xenograft tumors; 74 kBq group, post injection): ≤ 42 days | mice with tumor volume less than 1 mm^3 (LNCaP xenograft tumors; 74 kBq group, up to 42 days p.i., 5/7): 71% | antitumor effect (LNCaP xenograft tumors; 138 kBq and 74 kBq): significant antitumor effect | survival of the 75 d study (LNCaP xenograft tumors; 138 kBq treatment group): Every mouse in the 138 kBq treatment group survived | tumors not detectable (<0.5 mm^3) (LNCaP xenograft tumors; 138 kBq treatment group, 6/7): 86%

O=C([O-])CN1CCN(CC(=O)[O-])CCN(CC(=O)[O-])CCN(CC(=O)[O-])CC1.[225Ac+3] [[225Ac(DOTA)]-, reference compound]
blood clearance and excretion [3]: clear more rapidly through the urine

O=C([O-])CN1CCN(CC(=O)[O-])CCN(CC(=O)O)C(Cc2ccc(NC(=S)NCCCC[C@H](NC(=O)CCOCCOCCOCCn3cc(-c4cccc(NC(=O)NCCCC[C@H](NC(=O)N[C@@H](CCC(=O)O)C(=O)O)C(=O)O)c4)nn3)C(=O)N[C@@H](CCCCNC(=O)Cc3ccc(I)cc3)C(=O)O)cc2)CN(CC(=O)[O-])CC1.[177Lu+3] (stereo partly drawn) [177Lu-RPS-063]
blood activity (comparison within the series) ([1]; 4 h p.i.): highest blood activity | tumor uptake ([1]; 4 h p.i.): 30.0±3.1 % ID/g | kidney uptake ([1]; 24 h p.i.): 51.8±8.6 % ID/g | tumor uptake ([1]; 96 h p.i.): 12.9±0.5 % ID/g | tumor-to-kidney ratio ([1]; 96 h p.i.): 2.75±0.17 | dose integral in the tumor relative to 177Lu-PSMA-617 [2]: nearly four times higher

O=C(O)CC[C@H](NC(=O)N[C@@H](CCC(=O)N[C@@H](CCCCN(Cc1nccn1CC(=O)O)Cc1nccn1CC(=O)O)C(=O)O)C(=O)O)C(=O)O.[C-]#[O+].[C-]#[O+].[C-]#[O+].[Tc+] [99mTc-MIP-1427, ^99mTc-((7S,12S,16S)-1-(1-(carboxymethyl)-1H-imidazol-2-yl)-2-((1-(carboxymethyl)-1H-imidazol-2-yl)methyl)-9,14-dioxo-2,8,13,15-tetraazaoctadecane-7,12,16,18-tetracarboxylic acid technetiumtricarbonylcomplex)]
Kd (PSMA on LNCaP cells): 0.64 ± 0.46 nM

O=C([O-])c1cccc(CN2CCOCCOCCN(Cc3cccc(C(=O)[O-])n3)CCOCCOCC2)n1.[225Ac+3] [[225Ac(macropa)]+]
in vivo stability of the complex [3]: highly stable in vivo | accumulation of 225Ac in organs [3]: did not accumulate in any organ | blood clearance and excretion [3]: rapidly cleared from mice

O=[N+]([O-])[O-].O=[N+]([O-])[O-].O=[N+]([O-])[O-].[225Ac] [225Ac(NO3)3, reference compound]
accumulation of 225Ac in organs [3]: large accumulation in the liver and spleen | blood clearance and excretion [3]: slow blood clearance and excretion
